Values quoted from earlier work as cited in the CATMoS acute toxicity set (Mansouri et al. 2021).
Several values for one entry are separate records, joined by “and”; a condition that tells them apart may be missing. Equal entries are not always repeated.

Experiment: rat acute oral toxicity
Details: in vivo

Row | Compound | LD50
1 | CCCCCCCCn1sccc1=O | 550 mg/kg
2 | Cc1cnc(C)c(C)n1 | 806 mg/kg
3 | O=NN1CCNCC1 | 2260 mg/kg
4 | CC(C)(C)N | 96 mg/kg
5 | C1COCCOCCOCCOCCO1 | 1410 mg/kg
6 | CN(Cc1cc(Br)cc(Br)c1N)C1CCCCC1 | 6000 mg/kg
7 | C[C@H](CN1CCOCC1)C(C(=O)N1CCCC1)(c1ccccc1)c1ccccc1 | 71.8 mg/kg
8 | CC(CC(=O)O)CC(C)(C)C (centres undefined) | 1160 mg/kg
9 | NC(=O)c1cc2cc(CN3CCCCC3)ccc2o1 | 250 mg/kg
10 | C1CCC(CNC2=NCCS2)CC1 | 50 mg/kg
11 | CCOP(=S)(OCC)Oc1cc(C)nc2ccccc12 | 50 mg/kg
12 | Clc1ccc2ccccc2c1 | 2080 mg/kg
13 | CN1CCC2(C)CC(Cc3ccc(O)cc32)C1 (centres undefined) | 320 mg/kg
14 | COP(=O)(OC)OC=C(Br)Br | 253 mg/kg
15 | CNC(=O)Oc1ccccc1C1OCCS1 (centres undefined) | 56 mg/kg
16 | CCCCC(=O)Cc1ccccc1 | 4400 mg/kg
17 | OC[P+](CO)(CO)CO | 232 mg/kg
18 | CCOC(=O)c1cnn(C)c1-n1c(CC)nc2ccccc2c1=O | 1820 mg/kg
19 | Clc1cnn(CCCCN2CCN(c3ncccn3)CC2)c1 | 374 mg/kg
20 | N#CC(F)(F)C(F)(F)C(F)(F)C(F)(F)C#N | 2920 mg/kg
21 | c1ccc(-c2cccc(-c3ccccc3)c2)cc1 | 2400 mg/kg
22 | NC(=S)c1c(Cl)cccc1Cl | 757 mg/kg
23 | CC(=O)c1ccc2c(c1)N(CCCN1CCN(C)CC1)c1ccccc1S2 | 650 mg/kg
24 | C=CCOC(=O)C=Cc1ccccc1 | 1520 mg/kg
25 | SCc1ccccc1 | 493 mg/kg

Row | Compound | LD50
26 | N#C[C@H]1O[C@@H]1C#N | 250 mg/kg
27 | CC(=O)CCC(=O)O | 1850 mg/kg
28 | CC(=O)c1ccc(OCC(=O)NN)cc1 | 1820 mg/kg
29 | O=C(O)CCCCCCCCC(=O)O | 14400 mg/kg
30 | Cc1c(Cl)cc2[nH]c(C(F)(F)F)nc2c1[N+](=O)[O-] | 31.4 mg/kg
31 | O=[N+]([O-])C(Br)Br | 86 mg/kg
32 | CCCCCCCCc1ccc(C(CBr)OCCCC)cc1 (centres undefined) | 250 mg/kg
33 | CCNC(=O)Oc1c(Cl)c(Cl)cc2[nH]c(C(F)(F)F)nc12 | 103 mg/kg
34 | Nc1ccc(N)c2c1C(=O)c1ccccc1C2=O | 5790 mg/kg
35 | O=[N+]([O-])c1ccc(C=Cc2ccc([N+](=O)[O-])cc2S(=O)(=O)O)c(S(=O)(=O)O)c1 | 12600 mg/kg
36 | CNC(=O)c1cnn(C(C)(C)C)c1C#N | 392 mg/kg
37 | O=C(OCCOc1ccc(Cl)cc1Cl)c1ccccc1 | 1700 mg/kg
38 | O=S(=O)(c1ccc(NC([C@H](O)[C@@H](O)[C@H](O)[C@H](O)CO)S(=O)(=O)O)cc1)c1ccc(NC([C@H](O)[C@@H](O)[C@H](O)[C@H](O)CO)S(=O)(=O)O)cc1 (some centres undefined) | 3000 mg/kg
39 | CN=C1C=CC(=C(c2ccc(N(C)C)cc2)c2ccc(N(C)C)cc2)C=C1 | 413 mg/kg
40 | CCC1(CCC(C)C)C(=O)N=C(O)NC1=O (centres undefined) | 275 mg/kg
41 | CN1CCN(C2=Nc3ccccc3Cc3ccccc32)CC1 | 660 mg/kg
42 | COc1ccc2c(c1)c(CC(=O)OC/C=C(\C)CC/C=C(\C)CCC=C(C)C)c(C)n2C(=O)c1ccc(Cl)cc1 | 1680 mg/kg
43 | CS(=O)(=O)OCCCNCCCOS(C)(=O)=O | 108 mg/kg
44 | Nc1nccs1 | 480 mg/kg
45 | CCOP(=O)(OCC)SCC | 27 mg/kg
46 | C=C(Cl)CCl | 320 mg/kg
47 | COP(=O)(OC)Oc1ccc(S(C)(=O)=O)c(C)c1 | 30 mg/kg
48 | O=Cc1ccccc1-c1ccccc1C=O | 2830 mg/kg
49 | C/C=C/C=C/C(=O)O | 7360 mg/kg and 4340 mg/kg and 7160 mg/kg
50 | COc1cc(NC(=O)CC(C)=O)c(OC)cc1Cl | 850 mg/kg

Row | Compound | LD50
51 | C[C@@]12CCCCC[C@@H](Cc3ccc(O)cc31)[C@@H]2N | 243 mg/kg
52 | CCCSP(=O)(OC)SCCC | 6.8 mg/kg
53 | CC(C)c1cccc(C(C)C)c1N=C=O | 1410 mg/kg
54 | O[C@H]([C@H](O)[C@@H]1CO1)[C@H]1CO1 (racemic) | 14 mg/kg
55 | CC(C)(O)Cc1ccccc1 | 1280 mg/kg
56 | CCS(=O)Cc1ccccc1OC(=O)NC (centres undefined) | 150 mg/kg
57 | CC(c1ccccc1)N(C)C (centres undefined) | 420 mg/kg
58 | CC1Cc2cc(C(=O)CCc3ccccc3)ccc2O1 (centres undefined) | 2150 mg/kg
59 | COC(=O)C1(O)c2ccccc2-c2ccc(Cl)cc21 (centres undefined) | 3100 mg/kg
60 | FC(F)OC(F)(F)C(F)Cl (centres undefined) | 5450 mg/kg
61 | Oc1ccc(O)c2[nH]c(C(F)(F)F)nc12 | 29 mg/kg
62 | CCc1c(C)[nH]c2c1C(=O)C(CN1CCC3(CC1)OCCO3)CC2 (centres undefined) | 240 mg/kg
63 | BrC=CBr | 117 mg/kg and 62 mg/kg
64 | CC[Si](OC(C)=O)(OC(C)=O)OC(C)=O | 1460 mg/kg
65 | CCCCOC(=O)CC(C)=O | 11300 mg/kg
66 | CC(C)=CCCC(C)CCOC=O (centres undefined) | 8400 mg/kg
67 | NC1CCc2ccccc2C1 (centres undefined) | 100 mg/kg
68 | CCCCOC(=O)CC(CC(=O)OCCCC)(OC(C)=O)C(=O)OCCCC | 31400 mg/kg
69 | O=c1[nH]c2[nH]cnc(=O)c2[nH]1 | 1760 mg/kg
70 | COc1ccc2c3c1O[C@H]1C(=O)CC[C@H]4[C@@H](C2)N(C)CC[C@]314 | 375 mg/kg
71 | Cc1ccn(C(=O)NCCCCNC(=O)n2ccc(C)n2)n1 | 4600 mg/kg
72 | Cn1c(=O)c2c(ncn2CCOC(=O)C(C)(C)Oc2ccc(Cl)cc2)n(C)c1=O | 17000 mg/kg
73 | N#Cc1cc(Cl)cc2[nH]c(C(F)(F)F)nc12 | 4.79 mg/kg
74 | CCCCCCCCCCCCOCCOCCOCCOS(=O)(=O)O | 1820 mg/kg
